Here are results for eleven molecules from PubChem BioAssay (NCI).

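Values below derive from 48-hour exposures of cells grown in 96-well plates, with endpoints linearly interpolated between the two concentrations bracketing the appropriate inhibition level. GI50 marks 50% less growth. TGI marks complete inhibition of growth.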

Test systems include T-47D breast; UO-31 renal; UACC-257 melanoma; SF-539 CNS; SNB-75 CNS; CCRF-CEM leukemia; SNB-19 CNS; A498 renal; HCT-15 colon; MOLT-4 leukemia.
Common to all, as to test: NCI anticancer screen, dose series, 48 h

In the case of `O=C(/C(=C\c1c(-c2ccccc2)[nH]c2ccccc12)S(=O)(=O)c1ccccc1)c1ccccc1`, the GI50 is 3.44 µM in the test with T-47D breast; over 100 µM in the test on UO-31 renal; over 100 µM in the test on UACC-257 melanoma; over 100 µM in the test with SF-539 CNS; 10.1 µM in the test on SNB-75 CNS; over 100 µM with CCRF-CEM leukemia. The GI50 with SNB-19 CNS is over 100 µM. For the same molecule, the TGI with T-47D breast, in the test on UO-31 renal, with UACC-257 melanoma, with SF-539 CNS, in the test on SNB-75 CNS and with CCRF-CEM leukemia was over 100 µM throughout. In the test with SNB-19 CNS, this molecule registered a TGI of over 100 µM.

For `CCCC(=O)C1=C(O)C(Cc2c(O)c(C)c(O)c(C(=O)CCC)c2O)=C(O)C(C)(C)C1=O`, the TGI with T-47D breast, with UO-31 renal, in the test on A498 renal, in the test on UACC-257 melanoma, in the test on HCT-15 colon and in the test on SNB-75 CNS was over 50 µM each time. Also, the figures for the TGI in the test with MOLT-4 leukemia, in the test with CCRF-CEM leukemia and in the test on SNB-19 CNS were 36.3 µM, 20 µM and over 50 µM, respectively.

In the case of `COc1ccc(-c2nn(-c3cccc(Cl)c3)cc2-c2cc(-c3ccccc3)[nH]c(=O)c2C#N)cc1`, the GI50 with T-47D breast is 1.64 µM; in the test on A498 renal, 0.171 µM; in the test with HCT-15 colon, 27 µM; in the test with SF-539 CNS, 1.01 µM; with SNB-75 CNS, 1.17 µM; in the test with MOLT-4 leukemia it was 42.3 µM. Also, the figures for the GI50 with CCRF-CEM leukemia and in the test on SNB-19 CNS were 8.38 µM and 2.76 µM, respectively. Moreover, the TGI with T-47D breast is 7.43 µM; with A498 renal, 1.6 µM; with HCT-15 colon, over 50 µM; with SF-539 CNS, 2.75 µM; in the test with SNB-75 CNS it was 3.61 µM; in the test on MOLT-4 leukemia it was over 50 µM. Besides, the TGI with CCRF-CEM leukemia worked out at 19.3 µM; in the test on SNB-19 CNS it was 38.6 µM.

For the molecule `NCCNCC1CCNCC1`, the TGI in the test on T-47D breast, in the test on UO-31 renal, with A498 renal, with UACC-257 melanoma, with HCT-15 colon and in the test with SF-539 CNS was over 100 µM throughout. The TGI with SNB-75 CNS, in the test with MOLT-4 leukemia and in the test on SNB-19 CNS was over 100 µM throughout.

Regarding `CC1(C)CN=C(NN=C(/C=C/c2ccc(C(F)(F)F)cc2)/C=C/c2ccc(C(F)(F)F)cc2)NC1`, the GI50 in the test with T-47D breast is 1.49 µM; in the test with UO-31 renal, 1.52 µM; in the test on A498 renal it was 1.42 µM; in the test with UACC-257 melanoma, 1.56 µM; with HCT-15 colon, 0.989 µM; in the test on SF-539 CNS, 1.85 µM. Besides, the GI50 in the test with SNB-75 CNS is 1.56 µM; in the test with CCRF-CEM leukemia, 1.12 µM; in the test with SNB-19 CNS, 1.5 µM. The TGI with T-47D breast is 3.03 µM; in the test on UO-31 renal, 2.94 µM; in the test with A498 renal, 2.78 µM; in the test with UACC-257 melanoma it was 2.96 µM; in the test on HCT-15 colon, 2.45 µM; in the test on SF-539 CNS, 3.45 µM. In addition, the TGI was 2.95 µM in the test with SNB-75 CNS, 4.17 µM in the test with CCRF-CEM leukemia and 3.18 µM in the test with SNB-19 CNS.

In the case of `Cn1cc(-c2csc(-c3cn(CCCCN4CCCCC4)c4ccccc34)n2)c2cccnc21`, the GI50 was 14.3 µM in the test with T-47D breast; 1.51 µM in the test on UO-31 renal; 1.61 µM with A498 renal; 1.53 µM in the test with HCT-15 colon; 1.51 µM with SNB-75 CNS; 1.64 µM in the test with SNB-19 CNS. Further, the TGI was 40.3 µM in the test with T-47D breast; 2.95 µM in the test on UO-31 renal; 3 µM with A498 renal; 2.9 µM in the test on HCT-15 colon; 2.99 µM in the test with SNB-75 CNS; 3.07 µM with SNB-19 CNS.

`COc1cc(/C=C\c2cc(OC)c(OC)c(OC)c2)cc(N/C=C\C(=O)c2c[nH]c3ccccc23)c1OC`: the GI50 was 1.55 µM in the test on T-47D breast; 0.326 µM with UO-31 renal; 1.32 µM in the test on A498 renal; 3.17 µM with UACC-257 melanoma; 2.32 µM in the test with HCT-15 colon; 1.7 µM with SF-539 CNS. Also, the GI50 in the test on SNB-75 CNS was 1.47 µM; in the test on SNB-19 CNS, 3.92 µM. Moreover, the TGI was found to be 4.51 µM in the test on T-47D breast; 2.05 µM with UO-31 renal; 12 µM with A498 renal; 10.8 µM with UACC-257 melanoma; 5.63 µM in the test on HCT-15 colon; 3.19 µM in the test on SF-539 CNS. Besides, the TGI in the test on SNB-75 CNS was 2.92 µM; in the test with SNB-19 CNS it was 24.4 µM.

Turning to `O=C(O)c1cccc(COc2ccc([N+](=O)[O-])cc2Cl)c1`, the GI50 with T-47D breast, with UO-31 renal, in the test on HCT-15 colon, in the test on SNB-75 CNS, with CCRF-CEM leukemia and with SNB-19 CNS was over 100 µM each time. In addition, the TGI in the test on T-47D breast, with UO-31 renal, with HCT-15 colon, in the test with SNB-75 CNS, in the test with CCRF-CEM leukemia and in the test on SNB-19 CNS was over 100 µM each time.

In the case of `CCC/C=C/C=C/C1CC(O)C(O)C(=O)C1CO` (configuration not stated), the TGI in the test with T-47D breast, in the test with UO-31 renal, in the test with UACC-257 melanoma, in the test with HCT-15 colon, with SF-539 CNS and in the test on SNB-75 CNS was over 100 µM throughout. In addition, the TGI with CCRF-CEM leukemia and in the test on SNB-19 CNS was over 100 µM throughout.

As to `CC1CC(O)C(=O)C(O[C@@H]2C[C@@H]3CC[C@@H]4[C@H](CC[C@]5(C)C(C6=CC(=O)OC6)CC[C@]45O)[C@@]3(C=O)C[C@H]2O)O1` (some centres not stated), the TGI in the test on T-47D breast was 0.205 µM; with UO-31 renal, 0.22 µM; in the test on A498 renal, 0.232 µM; with UACC-257 melanoma, 0.418 µM; in the test with HCT-15 colon it was 0.0716 µM; in the test with SF-539 CNS it was 0.0586 µM. The TGI amounted to 0.18 µM in the test on SNB-75 CNS, 0.0991 µM with MOLT-4 leukemia and 0.0316 µM in the test on SNB-19 CNS.

On to `Nc1nc(-c2ccc(Cl)c([N+](=O)[O-])c2)cs1`, for which the TGI with UO-31 renal is over 100 µM; in the test on A498 renal, 92.1 µM; in the test with UACC-257 melanoma, over 100 µM; in the test with HCT-15 colon, over 100 µM; in the test on SF-539 CNS, over 100 µM; with SNB-75 CNS, 92.7 µM. The TGI in the test on MOLT-4 leukemia, with CCRF-CEM leukemia and in the test with SNB-19 CNS was over 100 µM each time.
